Experimental data as given in publication PMC12518634, “The noncanonical function of liver-type phosphofructokinase potentiates the efficacy of HDAC inhibitors in cancer” (Signal Transduction and Targeted Therapy, 2025).
Like-named read-outs stand apart in the source and are kept apart here.

Columns and labels:
RBE cells = experiment: Cell viability assay (CellTiter-Glo, 72 h), GI50; assay type: cell-based; conditions: Homo sapiens, Fig. 1b
Experimental: (§1) Cell viability was assessed using the CellTiter-Glo luminescent cell viability assay (Vazyme, DD1101) following the manufacturer’s instructions. Briefly, 5000 cells per well were seeded into a 96-well white bottom permeable plate. Different concentrations of drugs were added to each well. After 72 h of treatment, a mixture of CellTier reagent and serum-free culture medium was prepared at a 1:1 ratio, and 100 μL of the mixture was added to each well. After incubation at 37 °C for 15 min, the luminescence was measured using a microplate reader (Synergy H1, Biotek). All the experiments were conducted in triplicate. Cell viability (relative luminescence) was defined as the luminescence of the drug treatment relative to that of the vehicle control.

HuCCT1 cells = experiment: Cell viability assay (CellTiter-Glo, 72 h), GI50; assay type: cell-based; conditions: Homo sapiens
Experimental: as §1

SK-CHA-1 cells = experiment: Cell viability assay (CellTiter-Glo, 72 h), GI50; assay type: cell-based; conditions: Homo sapiens, Fig. 1b
Experimental: as §1

783C-6 cells = experiment: Cell viability assay (CellTiter-Glo, 72 h), GI50; assay type: cell-based; conditions: Homo sapiens
Experimental: as §1

1405R3 cells = experiment: Cell viability assay (CellTiter-Glo, 72 h), GI50; assay type: cell-based; conditions: Homo sapiens, Fig. 1b
Experimental: as §1

CC52 PDX tumors = experiment: CCA patient-derived xenograft tumor growth; assay type: in vivo; conditions: n = 5 mice per group, Fig. 2d, e
Text: (§2) For patient-derived xenograft (PDX) models, fresh tumor samples were cut into small pieces of approximately 1 mm³ and subcutaneously transplanted into the flanks of NSG mice (P1 generation). After 2 to 3 months of tumor growth, the established PDX tumors were transplanted into subsequent generations (P2-Pn) under the skin of nude or NSG mice. When the tumors reached approximately 100 mm^3, the mice were randomly allocated to different groups and treated with HDAC inhibitors or saline. Tumor volume calculation, euthanasia of the mice, and specimen preparation followed the procedures of the CDX model.

CC51 PDX tumors = experiment: CCA patient-derived xenograft tumor growth; assay type: in vivo; conditions: n = 5 mice per group, Fig. 2d, e
Text: as §2

CC16 PDX tumors = experiment: CCA patient-derived xenograft tumor growth; assay type: in vivo; conditions: n = 5 mice per group, Fig. 2d, e
Text: as §2

CC57 PDX tumors = experiment: CCA patient-derived xenograft tumor growth; assay type: in vivo; conditions: n = 5 mice per group, Fig. 2d, e
Text: as §2

CC11 PDX tumors = experiment: CCA patient-derived xenograft tumor growth; assay type: in vivo; conditions: n = 5 mice per group, Fig. 2d, e
Text: as §2

CC56 PDX tumors = experiment: CCA patient-derived xenograft tumor growth; assay type: in vivo; conditions: n = 5 mice per group, Fig. 2d, e
Text: as §2

783C-6 = experiment: High-throughput drug screen, CellTiter-Glo viability, 72 h; assay type: cell-based, human; set-up: AUC: scale not given here; conditions: for EC50: Homo sapiens, 72 h
In short: (§3)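 Cholangiocarcinoma cells were seeded at 3000/well in 384-well plates and dosed after 24 h. Drugs were tested at 10, 1, 0.1, 0.01 and 0.001 μM in duplicate for 72 h, with viability read by CellTiter-Glo luminescence.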

1405R3 = experiment: as above; assay type: cell-based, human; set-up: AUC: scale not given here; conditions: for EC50: Homo sapiens, 72 h
In short: as §3

783C-6 xenografts = experiment: Cell-derived xenograft tumor growth; assay type: in vivo; conditions: mice xenografted with PFKL high-expressed 783C-6 cells, n = 5 mice per group, Fig. 2b
Experimental: (§4) For cell-derived xenograft (CDX) models, tumor cells were resuspended in saline and combined with an equal volume of Matrigel. A total of 1 × 10^6 cells in a 0.1 ml mixture were injected subcutaneously into the right flank of 6-week-old male nude mice. Once the tumor volume reached approximately 100 mm³, the mice were randomly grouped and treated with drugs or saline. The tumor volume was measured every 3 days and calculated via the following formula: tumor volume = (length × width^2) × 0.5. When the tumor volume reached 1500 mm³, the mice were euthanized via CO2 asphyxiation. The tumor tissues were harvested for further study.

1405R3 xenografts = experiment: Cell-derived xenograft tumor growth; assay type: in vivo; conditions: mice xenografted with PFKL low-expressed 1405R3 cells; n = 5 mice per group; Fig. 2b, c
Experimental: as §4

SK-CHA-1 xenografts = experiment: Cell-derived xenograft tumor growth; assay type: in vivo; conditions: mice xenografted with PFKL high-expressed SK-CHA-1 cells; n = 5 mice per group; Fig. 2b, c
Experimental: as §4

HuCCT1 xenografts = experiment: Cell-derived xenograft tumor growth; assay type: in vivo; conditions: mice xenografted with PFKL low-expressed HuCCT1 cells; n = 5 mice per group; Fig. 2b, c
Experimental: as §4

TFK1 xenografts = experiment: Cell-derived xenograft tumor growth; assay type: in vivo; conditions: mice xenografted with PFKL high-expressed TFK1 cells; n = 5 mice per group; Fig. 2b, c
Experimental: as §4

[1] = HuCCT-1, 72 h, HuCCT1, 72 h, CellTiter-Glo, Fig. 1b
[2] = HuCCT-1, 72 h, HuCCT1 vector, 72 h, Fig. 1j
[3] = HuCCT-1, 72 h, HuCCT1 with PFKL overexpression (ovPFKL), 72 h, Fig. 1j
[4] = 783C-6 after interference with LHCGR si-1, Fig. 1f
[5] = 783C-6 after interference with LHCGR si-2, Fig. 1f
[6] = 783C-6 after interference with NFIA si-1, Fig. 1f
[7] = 783C-6 after interference with NFIA si-2, Fig. 1f
[8] = 783C-6 after interference with PFKFB1 si-1, Fig. 1f
[9] = 783C-6 after interference with PFKFB1 si-2, Fig. 1f
[10] = 783C-6 after interference with PFKL si-1, Fig. 1f
[11] = 783C-6 after interference with PFKL si-2, Fig. 1f
[12] = 783C-6 expressing sgNC, Fig. 1g
[13] = 783C-6 expressing sgPFKL-1, Fig. 1g
[14] = 783C-6 expressing sgPFKL-2, Fig. 1g

| Structure (SMILES) | GI50 (RBE cells) [nM] | GI50 (HuCCT1 cells; [1]) [nM] | GI50 (HuCCT1 cells; [2]) [nM] | GI50 (HuCCT1 cells; [3]) [nM] | GI50 (SK-CHA-1 cells) [nM] | GI50 (783C-6 cells; 783C-6, CellTiter-Glo, Fig. 1b) [nM] | GI50 (783C-6 cells; [4]) [nM] | GI50 (783C-6 cells; [5]) [nM] | GI50 (783C-6 cells; [6]) [nM] | GI50 (783C-6 cells; [7]) [nM] | GI50 (783C-6 cells; [8]) [nM] | GI50 (783C-6 cells; [9]) [nM] | GI50 (783C-6 cells; [10]) [nM] | GI50 (783C-6 cells; [11]) [nM] | GI50 (783C-6 cells; [12]) [nM] | GI50 (783C-6 cells; [13]) [nM] | GI50 (783C-6 cells; [14]) [nM] | GI50 (1405R3 cells) [nM] | PDX tumor growth compared to the control group (CC52 PDX tumors) | PDX tumor growth compared to the control group (CC51 PDX tumors) | other results |
| --- | --- | --- | --- | --- | --- | --- | --- | --- | --- | --- | --- | --- | --- | --- | --- | --- | --- | --- | --- | --- | --- |
| Cc1[nH]c2ccccc2c1CCNCc1ccc(/C=C/C(=O)NO)cc1 [Panobinostat, panobinostat] | 276 | 244 | 285 | 31.2 | 72.2 | 37.4 | 48 | 65.5 | 56.6 | 51.5 | 59 | 50.5 | 590 | 276 | 52.4 | 467 | 250 | 162 | notably attenuated the growth | no significant disparities | GI50 (783C-6 cells; 783C-6 siNC, Fig. 1f): 61.4 nM; PDX tumor growth compared to the control group (CC16 PDX tumors): notably attenuated the growth; PDX tumor growth compared to the control group (CC57 PDX tumors): notably attenuated the growth; PDX tumor growth compared to the control group (CC11 PDX tumors): notably attenuated the growth; PDX tumor growth compared to the control group (CC56 PDX tumors): no significant disparities; DSS (783C-6; 783C-6 cells, DSS of DSRT analysis): 31.3; AUC (783C-6; 783C-6 cells, area under the dose-response curve): 262.4; MIN (783C-6; 783C-6 cells, minimum of dose-response curve): 0.3; EC50 (783C-6; read-out: EC50): 22.9 nM; AUC (1405R3; 1405R3 DSRT analysis, area under the dose-response curve): 218.4; DSS (1405R3; 1405R3 DSRT analysis, drug sensitivity score): 25.4; MIN (1405R3; 1405R3 DSRT analysis, lower asymptote of fitted dose-response curve): 0; EC50 (1405R3; 1405R3 DSRT analysis, CellTiter-Glo viability, fitted dose-response curve, Min.Conc.tested 1, Max.Conc.tested 10000, GI50, read-out: EC50): 64.9 nM; tumor growth (783C-6 xenografts): markedly inhibited tumor growth; tumor growth (1405R3 xenografts): limited efficacy; tumor growth (SK-CHA-1 xenografts): markedly inhibited tumor growth; tumor growth (HuCCT1 xenografts): limited efficacy; tumor growth (TFK1 xenografts): markedly inhibited tumor growth |
| C/C=C1\NC(=O)[C@H]2CSSCC/C=C/[C@H](CC(=O)N[C@H](C(C)C)C(=O)N2)OC(=O)[C@H](C(C)C)NC1=O [Romidepsin, romidepsin] | 115 | 83.4 | 74 | 3.96 | 5.5 | 2.55 | 3.8 | 3.4 | 2.5 | 2.8 | 3.1 | 2.9 | 38.8 | 11.4 | 2.9 | 34.8 | 15.3 | 64.4 | notably attenuated the growth | no significant disparities | GI50 (HuCCT1 cells; HuCCT-1, HuCCT1, pretreated with peptide or NS for 12 h, then romidepsin 72 h, Fig. 5g): 93.5 nM; GI50 (783C-6 cells; 783C-6, romidepsin alone or combined with PFKL enzymatic activity modifier, Fig. 3b second table): 4.3 nM; GI50 (783C-6 cells; 783C-6, romidepsin alone or combined with glycolysis inhibitors, Fig. 3b first table): 3.49 nM; PDX tumor growth compared to the control group (CC16 PDX tumors): notably attenuated the growth; PDX tumor growth compared to the control group (CC57 PDX tumors): notably attenuated the growth; PDX tumor growth compared to the control group (CC11 PDX tumors): notably attenuated the growth; PDX tumor growth compared to the control group (CC56 PDX tumors): no significant disparities; AUC (783C-6): 354.8; DSS (783C-6): 43.7; MIN (783C-6): 0; EC50 (783C-6): 2.7 nM; AUC (1405R3): 228.5; DSS (1405R3): 26.8; MIN (1405R3): 0; EC50 (1405R3): 51.3 nM; tumor growth (783C-6 xenografts): markedly inhibited tumor growth; tumor growth (1405R3 xenografts): limited efficacy; tumor growth (SK-CHA-1 xenografts): markedly inhibited tumor growth; tumor growth (HuCCT1 xenografts): limited efficacy; tumor growth (TFK1 xenografts): markedly inhibited tumor growth |
